# According to ChEMBL document CHEMBL3885881, “DrugMatrix”:
# Species on record: Rattus norvegicus
# Assay: DrugMatrix - Regimen: Daily Repeat
# Type: toxicity, organism-based, Sprague-Dawley
# Parameters: regimen Daily Repeat, gender Male, age 6-8 weeks
# Conditions: in vivo, po, route oral GAVAGE, […]; for ABSOLUTE BASOPHIL / ABSOLUTE EOSINOPHIL / ABSOLUTE LYMPHOCYTE / ABSOLUTE MONOCYTE / ABSOLUTE SEGMENTED NEUTROPHIL / BASOPHIL / EOSINOPHIL / ERYTHROCYTE COUNT / HEMATOCRIT / HEMOGLOBIN / LEUKOCYTE COUNT / LYMPHOCYTE / MEAN CORPUSCULAR HEMOGLOBIN / MEAN CORPUSCULAR HEMOGLOBIN CONCENTRATION / MEAN CORPUSCULAR VOLUME / MONOCYTE / NEUTROPHIL / NUCLEATED RED BLOOD CELLS / PLATELET COUNT: tissue Blood; for ALANINE AMINOTRANSFERASE / ALBUMIN / ALKALINE PHOSPHATASE / ASPARTATE AMINOTRANSFERASE / BLOOD UREA NITROGEN / CARBON DIOXIDE / CHLORIDE / CHOLESTEROL / CREATINE PHOSPHOKINASE / CREATININE / GLUCOSE / LACTATE DEHYDROGENASE / LIPASE / PHOSPHORUS / POTASSIUM / SODIUM / TOTAL BILIRUBIN / TOTAL PROTEIN / URIC ACID: tissue Plasma
# [1] = 25 mg/kg, 72 h, dose level Low, time 3 day
# [2] = 25 mg/kg, 120 h, dose level Low, time 5 day
# [3] = 250 mg/kg, 72 h, dose level High, time 3 day
# [4] = 250 mg/kg, 120 h, dose level High, time 5 day
structure (smiles),measurement,setting,value
CC(C)C(Br)C(=O)NC(N)=O (configuration not stated) [BROMISOVALUM],ABSOLUTE BASOPHIL,[1],0 CELLS/uL
same,ABSOLUTE EOSINOPHIL,[1],72.33 CELLS/uL
same,ABSOLUTE LYMPHOCYTE,[1],9251.33 CELLS/uL
same,ABSOLUTE MONOCYTE,[1],35.67 CELLS/uL
same,ABSOLUTE SEGMENTED NEUTROPHIL,[1],740.67 CELLS/uL
same,BASOPHIL,[1],0%
same,EOSINOPHIL,[1],0.67%
same,ERYTHROCYTE COUNT,[1],5.09 x10E6/uL
same,HEMATOCRIT,[1],32.1%
same,HEMOGLOBIN,[1],12.97 G/DL
same,LEUKOCYTE COUNT,[1],10.1 x10E3/uL
same,LYMPHOCYTE,[1],91.67%
same,MEAN CORPUSCULAR HEMOGLOBIN,[1],25.47 pg
same,MEAN CORPUSCULAR HEMOGLOBIN CONCENTRATION,[1],40.4 G/DL
same,MEAN CORPUSCULAR VOLUME,[1],63.03 fL
same,MONOCYTE,[1],0.33%
same,NEUTROPHIL,[1],7.33%
same,NUCLEATED RED BLOOD CELLS,[1],0 /100WBC
same,PLATELET COUNT,[1],1168.33 x10E3/uL
same,ALANINE AMINOTRANSFERASE,[1],71.33 u/L
same,ALBUMIN,[1],4.37 G/DL
same,ALKALINE PHOSPHATASE,[1],465.67 u/L
same,ASPARTATE AMINOTRANSFERASE,[1],81.33 u/L
same,BLOOD UREA NITROGEN,[1],12.67 mg/dL
same,CARBON DIOXIDE,[1],33.33 mmol/L
same,CHLORIDE,[1],101 MEQ/L
same,CHOLESTEROL,[1],83 mg/dL
same,CREATINE PHOSPHOKINASE,[1],114.33 u/L
same,CREATININE,[1],0.13 mg/dL
same,GLUCOSE,[1],140.33 mg/dL
same,LACTATE DEHYDROGENASE,[1],109.33 u/L
same,LIPASE,[1],12.67 u/L
same,PHOSPHORUS,[1],10.3 mg/dL
same,POTASSIUM,[1],5.88 MEQ/L
same,SODIUM,[1],149.4 MEQ/L
same,TOTAL BILIRUBIN,[1],0.23 mg/dL
same,TOTAL PROTEIN,[1],5.6 G/DL
same,URIC ACID,[1],0.63 mg/dL
same,ABSOLUTE BASOPHIL,[2],0 CELLS/uL
same,ABSOLUTE EOSINOPHIL,[2],0 CELLS/uL
same,ABSOLUTE LYMPHOCYTE,[2],11869 CELLS/uL
same,ABSOLUTE MONOCYTE,[2],46.67 CELLS/uL
same,ABSOLUTE SEGMENTED NEUTROPHIL,[2],851 CELLS/uL
same,BASOPHIL,[2],0%
same,EOSINOPHIL,[2],0%
same,ERYTHROCYTE COUNT,[2],5.78 x10E6/uL
same,HEMATOCRIT,[2],35.77%
same,HEMOGLOBIN,[2],14.1 G/DL
same,LEUKOCYTE COUNT,[2],12.77 x10E3/uL
same,LYMPHOCYTE,[2],93%
same,MEAN CORPUSCULAR HEMOGLOBIN,[2],24.37 pg
same,MEAN CORPUSCULAR HEMOGLOBIN CONCENTRATION,[2],39.43 G/DL
same,MEAN CORPUSCULAR VOLUME,[2],61.83 fL
same,MONOCYTE,[2],0.33%
same,NEUTROPHIL,[2],6.67%
same,NUCLEATED RED BLOOD CELLS,[2],0 /100WBC
same,PLATELET COUNT,[2],1234 x10E3/uL
same,ALANINE AMINOTRANSFERASE,[2],59.67 u/L
same,ALBUMIN,[2],4.33 G/DL
same,ALKALINE PHOSPHATASE,[2],401 u/L
same,ASPARTATE AMINOTRANSFERASE,[2],86.33 u/L
same,BLOOD UREA NITROGEN,[2],12.67 mg/dL
same,CARBON DIOXIDE,[2],27 mmol/L
same,CHLORIDE,[2],103 MEQ/L
same,CHOLESTEROL,[2],65 mg/dL
same,CREATINE PHOSPHOKINASE,[2],275 u/L
same,CREATININE,[2],0.14 mg/dL
same,GLUCOSE,[2],162.67 mg/dL
same,LACTATE DEHYDROGENASE,[2],114.33 u/L
same,LIPASE,[2],9.67 u/L
same,PHOSPHORUS,[2],12.73 mg/dL
same,POTASSIUM,[2],6.6 MEQ/L
same,SODIUM,[2],147.97 MEQ/L
same,TOTAL BILIRUBIN,[2],0.2 mg/dL
same,TOTAL PROTEIN,[2],6.17 G/DL
same,URIC ACID,[2],1.7 mg/dL
same,ABSOLUTE BASOPHIL,[3],0 CELLS/uL
same,ABSOLUTE EOSINOPHIL,[3],0 CELLS/uL
same,ABSOLUTE LYMPHOCYTE,[3],11820.33 CELLS/uL
same,ABSOLUTE MONOCYTE,[3],38.33 CELLS/uL
same,ABSOLUTE SEGMENTED NEUTROPHIL,[3],1174.67 CELLS/uL
same,BASOPHIL,[3],0%
same,EOSINOPHIL,[3],0%
same,ERYTHROCYTE COUNT,[3],5.57 x10E6/uL
same,HEMATOCRIT,[3],35.87%
same,HEMOGLOBIN,[3],14.33 G/DL
same,LEUKOCYTE COUNT,[3],13.03 x10E3/uL
same,LYMPHOCYTE,[3],91%
same,MEAN CORPUSCULAR HEMOGLOBIN,[3],25.8 pg
same,MEAN CORPUSCULAR HEMOGLOBIN CONCENTRATION,[3],39.97 G/DL
same,MEAN CORPUSCULAR VOLUME,[3],64.47 fL
same,MONOCYTE,[3],0.33%
same,NEUTROPHIL,[3],8.67%
same,NUCLEATED RED BLOOD CELLS,[3],0 /100WBC
same,PLATELET COUNT,[3],1177.33 x10E3/uL
same,ALANINE AMINOTRANSFERASE,[3],70 u/L
same,ALBUMIN,[3],4.17 G/DL
same,ALKALINE PHOSPHATASE,[3],407.67 u/L
same,ASPARTATE AMINOTRANSFERASE,[3],90.33 u/L
same,BLOOD UREA NITROGEN,[3],15 mg/dL
same,CARBON DIOXIDE,[3],27.33 mmol/L
same,CHLORIDE,[3],103 MEQ/L
same,CHOLESTEROL,[3],62.67 mg/dL
same,CREATINE PHOSPHOKINASE,[3],210.67 u/L
same,CREATININE,[3],0.26 mg/dL
same,GLUCOSE,[3],148 mg/dL
same,LACTATE DEHYDROGENASE,[3],109.33 u/L
same,LIPASE,[3],10.33 u/L
same,PHOSPHORUS,[3],11.9 mg/dL
same,POTASSIUM,[3],6.86 MEQ/L
same,SODIUM,[3],144.53 MEQ/L
same,TOTAL BILIRUBIN,[3],0.2 mg/dL
same,TOTAL PROTEIN,[3],5.67 G/DL
same,URIC ACID,[3],1.67 mg/dL
same,ABSOLUTE BASOPHIL,[4],0 CELLS/uL
same,ABSOLUTE EOSINOPHIL,[4],46.33 CELLS/uL
same,ABSOLUTE LYMPHOCYTE,[4],14344.33 CELLS/uL
same,ABSOLUTE MONOCYTE,[4],108 CELLS/uL
same,ABSOLUTE SEGMENTED NEUTROPHIL,[4],1434.67 CELLS/uL
same,BASOPHIL,[4],0%
same,EOSINOPHIL,[4],0.33%
same,ERYTHROCYTE COUNT,[4],6.03 x10E6/uL
same,HEMATOCRIT,[4],36.47%
same,HEMOGLOBIN,[4],14.63 G/DL
same,LEUKOCYTE COUNT,[4],15.93 x10E3/uL
same,LYMPHOCYTE,[4],89.67%
same,MEAN CORPUSCULAR HEMOGLOBIN,[4],24.23 pg
same,MEAN CORPUSCULAR HEMOGLOBIN CONCENTRATION,[4],40.13 G/DL
same,MEAN CORPUSCULAR VOLUME,[4],60.47 fL
same,MONOCYTE,[4],0.67%
same,NEUTROPHIL,[4],9.33%
same,NUCLEATED RED BLOOD CELLS,[4],0 /100WBC
same,PLATELET COUNT,[4],1192.33 x10E3/uL
same,ALANINE AMINOTRANSFERASE,[4],64.67 u/L
same,ALBUMIN,[4],4.43 G/DL
same,ALKALINE PHOSPHATASE,[4],429.33 u/L
same,ASPARTATE AMINOTRANSFERASE,[4],83.67 u/L
same,BLOOD UREA NITROGEN,[4],13.33 mg/dL
same,CARBON DIOXIDE,[4],25.67 mmol/L
same,CHLORIDE,[4],104 MEQ/L
same,CHOLESTEROL,[4],55 mg/dL
same,CREATINE PHOSPHOKINASE,[4],157.67 u/L
same,CREATININE,[4],0.2 mg/dL
same,GLUCOSE,[4],140.67 mg/dL
same,LACTATE DEHYDROGENASE,[4],110.67 u/L
same,LIPASE,[4],9.67 u/L
same,PHOSPHORUS,[4],9.97 mg/dL
same,POTASSIUM,[4],6.56 MEQ/L
same,SODIUM,[4],144.1 MEQ/L
same,TOTAL BILIRUBIN,[4],0.2 mg/dL
same,TOTAL PROTEIN,[4],6.27 G/DL
same,URIC ACID,[4],1.53 mg/dL
